From patent publication US20250127907A1, “PARP INHIBITORS” (Stablix, Inc., priority 2023, published 2025)
pIC50: −log10 of the molar value. Read-outs that look alike come from different tables or passages of the source.

Columns and labels:
PARP1 [1] = molecular target: T1, PARP1 (Homo sapiens, UniProt P09874); experiment: PARP1-enzyme assay (NAD/NADH-Glo biochemical assay); conditions: recombinant PARP1, NAD+ consumption
Description: The PARP enzyme catalyzes the transfer of ADP-Ribose from NAD+ onto PAR chains/histone substrates. The catalytic cycle is monitored indirectly with the NAD/NADH-Glo Assay kit from Promega. […] NAD+ consumed is determined by comparison to the no enzyme control.
• Recombinant PARP1 • NAD+/NAHD-Glow assay Kit • Activated DNA, 10 μg/mL • NAD+(Nicotinamide Adenine Dinucleotide), 500 nM • Protein substrate for PARP1: Core Histone from chicken, 10 μg/mL
The letter codes for the PARP1-enzyme assay include: A (<1 nM), B (>1-10 nM), C (>10-100 nM), D (>100-1000 nM), E (>1000 nM), and “-” is not tested. The letter codes for the PARP trapping assay, and parylation assay include: A (<10 nM), B (>10-100 nM), C (>100-1000 nM), […], E (>10000 nM), and “-” is not tested.
Target sequence in this assay (P09874 whole entry, species assumed): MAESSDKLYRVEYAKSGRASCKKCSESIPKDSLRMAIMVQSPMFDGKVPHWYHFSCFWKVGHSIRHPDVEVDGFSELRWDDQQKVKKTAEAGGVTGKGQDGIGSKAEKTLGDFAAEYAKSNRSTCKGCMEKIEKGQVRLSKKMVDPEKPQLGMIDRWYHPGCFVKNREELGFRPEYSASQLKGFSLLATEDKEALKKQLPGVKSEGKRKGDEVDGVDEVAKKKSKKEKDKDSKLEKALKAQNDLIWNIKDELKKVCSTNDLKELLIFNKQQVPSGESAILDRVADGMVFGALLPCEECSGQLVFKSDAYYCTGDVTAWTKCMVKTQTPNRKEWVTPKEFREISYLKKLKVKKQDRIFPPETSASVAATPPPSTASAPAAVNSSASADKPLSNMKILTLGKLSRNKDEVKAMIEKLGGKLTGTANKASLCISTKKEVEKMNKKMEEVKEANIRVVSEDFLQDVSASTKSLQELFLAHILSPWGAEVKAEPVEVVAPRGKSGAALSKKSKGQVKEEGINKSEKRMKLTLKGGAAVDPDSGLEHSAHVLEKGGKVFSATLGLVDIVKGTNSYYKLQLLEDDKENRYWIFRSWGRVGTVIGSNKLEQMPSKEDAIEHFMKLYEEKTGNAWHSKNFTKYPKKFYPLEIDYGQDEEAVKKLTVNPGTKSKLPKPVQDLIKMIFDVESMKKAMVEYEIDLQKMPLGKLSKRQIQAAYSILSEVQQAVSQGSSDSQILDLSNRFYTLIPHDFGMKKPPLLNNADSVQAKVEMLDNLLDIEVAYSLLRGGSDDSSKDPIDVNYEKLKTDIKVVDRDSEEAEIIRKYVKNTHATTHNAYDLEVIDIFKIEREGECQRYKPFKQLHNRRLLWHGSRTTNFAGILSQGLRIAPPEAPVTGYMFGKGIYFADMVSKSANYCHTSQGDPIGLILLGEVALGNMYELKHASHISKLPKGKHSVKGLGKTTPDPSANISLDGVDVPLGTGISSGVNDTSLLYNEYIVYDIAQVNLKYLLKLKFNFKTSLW

A2780 cells = experiment: Cell proliferation assay (A2780); format: cell-based; conditions: Homo sapiens, 168 h, 7 days
PARP1 [2] = molecular target: T1, PARP1; experiment: PARP trapping assay in U2OS cells; format: cell-based; set-up: endogenous in cells; host or cells: U2OS
In short: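 U2OS cells co-treated with compounds and MMS for 4 h, then soluble proteins extracted with 0.5% Triton X-100, MeOH-fixed and immunostained for PARP1. Chromatin-bound PARP1 quantified as AF488 intensity per DAPI-segmented nucleus; potencies reported as letter-code bins.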
Target sequence in this assay (P09874 whole entry): as the sequence (P09874 whole entry, species assumed) above

MDA-MB-436 cells = experiment: Cell proliferation assay (MDA-MB-436); format: cell-based; conditions: 7 days
HCC1806 cells = experiment: Cell proliferation assay (HCC1806); format: cell-based; conditions: 7 days
[3] = tested on: Poly/Mono-ADP Ribose in U2OS cells; experiment: PAR in cell western assay (parylation) in U2OS cells; format: cell-based; conditions: read-out: Parylation (U2OS)
In short: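 U2OS cells treated with compound for 6 h, then 2 mM H2O2 for 10 min to induce DNA damage. After methanol fixation, cells stained overnight at 4 °C with anti-mono/poly-ADP-ribose antibody and imaged by infrared in-cell western, normalized to CellTag 700; reported as % control inhibition.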

[4] = U2OS cells, MMS, 4 hrs, read-out: PARP Trapping (U2OS)
[5] = Homo sapiens, U2OS cells, 6 hrs, 2 mM H2O2

SMILES	pIC50 (PARP1 [1])	pIC50 (A2780 cells)	pIC50 (PARP1 [2]; [4])	pIC50 (MDA-MB-436 cells; Homo sapiens, 168 h)	pIC50 (HCC1806 cells; Homo sapiens, 168 h)	pIC50 [3, 5]	pIC50 (MDA-MB-436 cells)	pIC50 (HCC1806 cells)	pIC50 ([3]; U2OS cells, 6 hrs, 2 mM H2O2)	pIC50 (PARP1 [2])	pIC50 ([3]; Homo sapiens, U2OS, 6 h)
COC12CCC(CNCC(=O)N3CCCC(c4cccc(C(=O)N[C@@H](C(=O)N5CCC(CN6CCN(CC(=O)N7CCN(C(=O)c8cc(Cc9n[nH]c(=O)c%10ccccc9%10)ccc8F)CC7)CC6)CC5)C5CCCCC5)c4)C3)(CC1)OC2 (some centres unmarked) [Compound I-165]	> 9.00	–	6.00 to 7.00	7.00 to 8.00	> 8.00	6.00 to 7.00	–	–	–	–	–
Cc1sc(CN2CCCC2c2nnc3n2CCCCC3)nc1C12CC(C(=O)NCCOCCOCCNCC(=O)N3CCN(C(=O)c4cc(Cc5cccc6c(=O)[nH]ncc56)ccc4F)CC3)(C1)C2 (centres unmarked) [Compound I-193]	> 9.00	–	< 5.00	–	–	–	6.00 to 7.00	> 8.00	6.00 to 7.00	–	–
CCOc1cc(OC)ccc1CNCC(=O)N1CCCC(c2cccc(C(=O)N[C@@H](C(=O)N3CCN(CC4CCN(CC(=O)N5CCN(C(=O)c6cc(Cc7n[nH]c(=O)c8ccccc78)ccc6F)CC5)CC4)CC3)C3CCCCC3)c2)C1 (some centres unmarked) [Compound I-28]	> 9.00	5.00 to 6.00	6.00 to 7.00	7.00 to 8.00	6.00 to 7.00	6.00 to 7.00	–	–	–	–	–
CCc1cccc(-c2cnc(C(=O)N3CCN(CC4CCN(CC(=O)N5CCN(C(=O)c6cc(Cc7n[nH]c(=O)c8ccccc78)ccc6F)CC5)CC4)CC3)c(NC(=O)CNCc3cc(C)no3)c2)c1 [Compound I-233]	> 9.00	–	6.00 to 7.00	7.00 to 8.00	> 8.00	7.00 to 8.00	–	–	–	–	–
Cc1sc(CN2CCCC2c2nnc3n2CCCCC3)nc1C12CC(C(=O)NCCOCCOCCOCCOCCNCC(=O)N3CCN(C(=O)c4cc(Cc5n[nH]c(=O)c6ccccc56)ccc4F)CC3)(C1)C2 (centres unmarked) [Compound I-195]	> 9.00	–	5.00 to 6.00	6.00 to 7.00	> 8.00	7.00 to 8.00	–	–	–	–	–
Cc1sc(CN2CCCC2c2nnc3n2CCCCC3)nc1C12CC(C(=O)NCCOCCOCCOCCNCC(=O)N3CCN(C(=O)c4cc(Cc5n[nH]c(=O)c6ccccc56)ccc4F)CC3)(C1)C2 (centres unmarked) [Compound I-194]	> 9.00	–	< 5.00	6.00 to 7.00	> 8.00	6.00 to 7.00	–	–	–	–	–
O=C(N[C@@H](C(=O)N1CCN(CC2CCN(CC(=O)N3CCN(C(=O)c4cc(Cc5n[nH]c(=O)c6ccccc56)ccc4F)CC3)CC2)CC1)C1CCCCC1)c1cc(C2CCCN(C(=O)CNC3CC3)C2)ccc1F (some centres unmarked) [Compound I-323]	> 9.00	6.00 to 7.00	–	> 8.00	–	–	–	–	–	6.00 to 7.00	6.00 to 7.00
CCOc1cc(OC)ccc1CNCC(=O)N1CCCC(c2cccc(C(=O)N[C@@H](C(=O)N3CCC(OC4CCN(CC(=O)N5CCN(C(=O)c6cc(Cc7n[nH]c(=O)c8ccccc78)ccc6F)CC5)CC4)CC3)C3CCCCC3)c2)C1 (some centres unmarked) [Compound I-173]	> 9.00	–	7.00 to 8.00	7.00 to 8.00	> 8.00	6.00 to 7.00	–	–	–	–	–
CCOc1cc(OC)ccc1CNCC(=O)N1CCCC(c2cccc(C(=O)N[C@@H](C(=O)NCCOCCOCCOCCOCCNCC(=O)N3CCN(C(=O)c4cc(Cc5n[nH]c(=O)c6ccccc56)ccc4F)CC3)C3CCCCC3)c2)C1 (some centres unmarked) [Compound I-31]	> 9.00	–	–	6.00 to 7.00	> 8.00	> 8.00	–	–	–	–	–
CCOc1cc(OC)ccc1CNCC(=O)N1CCCC(c2cccc(C(=O)N[C@@H](C(=O)NCc3cn(CCNCC(=O)N4CCN(C(=O)c5cc(Cc6n[nH]c(=O)c7ccccc67)ccc5F)CC4)nn3)C3CCCCC3)c2)C1 (some centres unmarked) [Compound I-29]	> 9.00	–	–	5.00 to 6.00	> 8.00	> 8.00	–	–	–	–	–
CCOc1cc(OC)ccc1CNCC(=O)N1CCC[C@H](c2cccc(C(=O)N[C@@H](C(=O)N3CCN(CC4CCN(CC(=O)N5CCN(C(=O)c6cc(Cc7n[nH]c(=O)c8ccccc78)ccc6F)CC5)CC4)CC3)C3CCCCC3)c2)C1 [Compound I-167]	> 9.00	–	7.00 to 8.00	6.00 to 7.00	> 8.00	6.00 to 7.00	–	–	–	–	–
O=C(N[C@@H](C(=O)N1CCN(CC2CCN(CC(=O)N3CCN(C(=O)c4cc(Cc5n[nH]c(=O)c6ccccc56)ccc4F)CC3)CC2)CC1)C1CCCCC1)c1cccc(C2CCCN(C(=O)CNCc3ccc(F)cc3F)C2)c1 (some centres unmarked) [Compound I-184]	> 9.00	6.00 to 7.00	6.00 to 7.00	7.00 to 8.00	–	6.00 to 7.00	–	–	–	–	–
COC12CCC(CNCC(=O)N3CCCC(c4cccc(C(=O)N[C@@H](C(=O)N5CCN(CC6CCN(CC(=O)N7CCN(C(=O)c8cc(Cc9n[nH]c(=O)c%10ccccc9%10)ccc8F)CC7)CC6)CC5)C5CCCCC5)c4)C3)(CC1)OC2 (some centres unmarked) [Compound I-157]	> 9.00	–	6.00 to 7.00	7.00 to 8.00	> 8.00	6.00 to 7.00	–	–	–	–	–
CCOc1cc(OC)ccc1CNCC(=O)N1CCCC(c2cccc(C(=O)N[C@@H](C(=O)N3CCN(CC45CCC(C(=O)N6CCN(C(=O)c7cc(Cc8n[nH]c(=O)c9ccccc89)ccc7F)CC6)(CC4)CO5)CC3)C3CCCCC3)c2)C1 (some centres unmarked) [Compound I-166]	> 9.00	–	7.00 to 8.00	7.00 to 8.00	> 8.00	6.00 to 7.00	–	–	–	–	–

The next lines start with results.

pIC50 (PARP1 [1])	pIC50 (A2780 cells)	pIC50 (PARP1 [2]; [4])	pIC50 (MDA-MB-436 cells; Homo sapiens, 168 h)	pIC50 (HCC1806 cells; Homo sapiens, 168 h)	pIC50 [3, 5]	pIC50 (MDA-MB-436 cells)	pIC50 (HCC1806 cells)	pIC50 ([3]; U2OS cells, 6 hrs, 2 mM H2O2)	SMILES	pIC50 (PARP1 [2])	pIC50 ([3]; Homo sapiens, U2OS, 6 h)
> 9.00	7.00 to 8.00	6.00 to 7.00	> 8.00	6.00 to 7.00	7.00 to 8.00	–	–	–	O=C(NC(C(=O)N1CCC(OC2CCN(CC(=O)N3CCN(C(=O)c4cc(Cc5n[nH]c(=O)c6ccccc56)ccc4F)CC3)CC2)CC1)C1CCCCC1)c1cccc(C2CCCN(C(=O)CNCc3ccc(F)cc3F)C2)c1 (centres unmarked) [Compound I-369]	–	–
> 9.00	7.00 to 8.00	6.00 to 7.00	> 8.00	7.00 to 8.00	7.00 to 8.00	–	–	–	CCc1cccc(-c2cnc(C(=O)NCCOCCNCC(=O)N3CCN(C(=O)c4cc(Cc5n[nH]c(=O)c6ccccc56)ccc4F)CC3)c(NC(C)=O)c2)c1 [Compound I-403]	–	–
> 9.00	6.00 to 7.00	6.00 to 7.00	7.00 to 8.00	6.00 to 7.00	7.00 to 8.00	–	–	–	O=C(N[C@@H](C(=O)N1CCN(CC2CCN(CC(=O)N3CCN(C(=O)c4cc(Cc5n[nH]c(=O)c6ccccc56)ccc4F)CC3)CC2)CC1)C1CCCCC1)c1cccc(C2CCCN(C(=O)C3CC3)C2)c1 (some centres unmarked) [Compound I-962]	–	–
> 9.00	6.00 to 7.00	6.00 to 7.00	6.00 to 7.00	6.00 to 7.00	6.00 to 7.00	–	–	–	CCc1cccc(-c2cnc(C(=O)N3CCC(CN4CCN(CC(=O)N5CCN(C(=O)c6cc(Cc7n[nH]c(=O)c8ccccc78)ccc6F)CC5)CC4)CC3)c(N)c2)c1 [Compound I-366]	–	–
> 9.00	7.00 to 8.00	7.00 to 8.00	> 8.00	7.00 to 8.00	7.00 to 8.00	–	–	–	CCc1cccc(-c2cc(F)c(C(=O)N3CCC(CN4CCN(CC(=O)N5CCN(C(=O)c6cc(Cc7n[nH]c(=O)c8ccccc78)ccc6F)CC5)CC4)CC3)c(F)c2)c1 [Compound I-410]	–	–
> 9.00	7.00 to 8.00	7.00 to 8.00	> 8.00	7.00 to 8.00	6.00 to 7.00	–	–	–	O=C(N[C@@H](C(=O)N1CCC(OC2CCN(CC(=O)N3CCN(C(=O)c4cc(Cc5n[nH]c(=O)c6ccccc56)ccc4F)CC3)CC2)CC1)C1CCCCC1)c1cccc(C2CCCN(C(=O)C3CC3)C2)c1F (some centres unmarked) [Compound I-457]	–	–
> 9.00	5.00 to 6.00	6.00 to 7.00	7.00 to 8.00	–	7.00 to 8.00	–	–	–	O=C(N[C@@H](C(=O)N1CCN(CC2CCN(CC(=O)N3CCN(C(=O)c4cc(Cc5n[nH]c(=O)c6ccccc56)ccc4F)CC3)CC2)CC1)C1CCCCC1)c1cccc([C@@H]2CCCN(C(=O)CNC3CC3)C2)c1 [Compound I-365]	–	–
> 9.00	7.00 to 8.00	7.00 to 8.00	> 8.00	–	7.00 to 8.00	–	–	–	CCc1cccc(-c2cnc(C(=O)N3CCC(CN4CCN(CC(=O)N5CCN(C(=O)c6cc(Cc7n[nH]c(=O)c8ccccc78)ccc6F)CC5)CC4)CC3)c(NC3CC3)c2)c1 [Compound I-407]	–	–
> 9.00	6.00 to 7.00	6.00 to 7.00	7.00 to 8.00	–	7.00 to 8.00	–	–	–	O=C(N[C@@H](C(=O)N1CCN(CC2CCN(CC(=O)N3CCN(C(=O)c4cc(Cc5n[nH]c(=O)c6ccccc56)ccc4F)CC3)CC2)CC1)C1CCCCC1)c1cc(C2CCCN(C(=O)CNCc3ccc(F)cc3F)C2)ccc1F (some centres unmarked) [Compound I-346]	–	–
> 9.00	7.00 to 8.00	6.00 to 7.00	> 8.00	–	7.00 to 8.00	–	–	–	CCc1cccc(-c2cnc(C(=O)N3CCC(OC4CCN(CC(=O)N5CCN(C(=O)c6cc(Cc7n[nH]c(=O)c8ccccc78)ccc6F)CC5)CC4)CC3)c(NC(C)=O)c2)c1 [Compound I-404]	–	–
